According to the NIST ThermoML archive (doi:10.1016/j.fluid.2016.02.031):
Numbers after ± are expanded uncertainties.

How the values were obtained:
[1] = refractive index (Na D-line) (dimensionless); xn = mol fraction of the nth substance listed; conditions: 100 kPa, Liquid, Standard Abbe refractometry, x2 = 0
[2] = xn = mol fraction of the nth substance listed; conditions: 100 kPa, Liquid, x2 = 0; for viscosity: Concentric cylinders viscometry; for mass density: Vibrating tube method

Structure (SMILES)	refractive index ([1]; 288.15 K)	refractive index ([1]; 293.15 K)	refractive index ([1]; 298.15 K)	refractive index ([1]; 303.15 K)	refractive index ([1]; 308.15 K)	refractive index ([1]; 313.15 K)	refractive index ([1]; 318.15 K)	refractive index ([1]; 323.15 K)	refractive index ([1]; 328.15 K)	refractive index ([1]; 333.15 K)	viscosity ([2]; 288.15 K) [mPa·s]	mass density ([2]; 288.15 K) [kg/m3]	viscosity ([2]; 293.15 K) [mPa·s]	mass density ([2]; 293.15 K) [kg/m3]	viscosity ([2]; 298.15 K) [mPa·s]	mass density ([2]; 298.15 K) [kg/m3]	viscosity ([2]; 303.15 K) [mPa·s]	mass density ([2]; 303.15 K) [kg/m3]	viscosity ([2]; 308.15 K) [mPa·s]	mass density ([2]; 308.15 K) [kg/m3]	further results
CCC(C)=O [butanone] + OCCCO	1.38157 ± 0.00035	1.37901 ± 0.00035	1.37642 ± 0.00035	1.37386 ± 0.00035	1.37125 ± 0.00035	1.36857 ± 0.00035	1.36589 ± 0.00035	1.36315 ± 0.00035	1.36042 ± 0.00035	1.35746 ± 0.00035	0.4308 ± 0.0065	810.067 ± 0.2	0.4152 ± 0.0064	804.863 ± 0.2	0.3992 ± 0.0062	799.632 ± 0.21	0.3826 ± 0.0061	794.371 ± 0.21	0.3665 ± 0.0059	789.078 ± 0.21	viscosity ([2]; 313.15 K): 0.3499 ± 0.0058 mPa·s; mass density ([2]; 313.15 K): 783.752 ± 0.21 kg/m3; viscosity ([2]; 318.15 K): 0.3336 ± 0.0057 mPa·s; mass density ([2]; 318.15 K): 778.389 ± 0.21 kg/m3; viscosity ([2]; 323.15 K): 0.3174 ± 0.0055 mPa·s; mass density ([2]; 323.15 K): 772.985 ± 0.21 kg/m3; viscosity ([2]; 328.15 K): 0.3001 ± 0.0054 mPa·s; mass density ([2]; 328.15 K): 767.539 ± 0.21 kg/m3; viscosity ([2]; 333.15 K): 0.2829 ± 0.0052 mPa·s; mass density ([2]; 333.15 K): 762.048 ± 0.21 kg/m3
CCC(C)=O [butanone] + c1ccncc1	1.38157 ± 0.00035	1.37901 ± 0.00035	1.37642 ± 0.00035	1.37386 ± 0.00035	1.37125 ± 0.00035	1.36857 ± 0.00035	1.36589 ± 0.00035	1.36315 ± 0.00035	1.36042 ± 0.00035	1.35746 ± 0.00035	0.4308 ± 0.0065	810.067 ± 0.2	0.4152 ± 0.0064	804.863 ± 0.2	0.3992 ± 0.0062	799.632 ± 0.21	0.3826 ± 0.0061	794.371 ± 0.21	0.3665 ± 0.0059	789.078 ± 0.21	viscosity ([2]; 313.15 K): 0.3499 ± 0.0058 mPa·s; mass density ([2]; 313.15 K): 783.752 ± 0.21 kg/m3; viscosity ([2]; 318.15 K): 0.3336 ± 0.0057 mPa·s; mass density ([2]; 318.15 K): 778.389 ± 0.21 kg/m3; viscosity ([2]; 323.15 K): 0.3174 ± 0.0055 mPa·s; mass density ([2]; 323.15 K): 772.985 ± 0.21 kg/m3; viscosity ([2]; 328.15 K): 0.3001 ± 0.0054 mPa·s; mass density ([2]; 328.15 K): 767.539 ± 0.21 kg/m3; viscosity ([2]; 333.15 K): 0.2829 ± 0.0052 mPa·s; mass density ([2]; 333.15 K): 762.048 ± 0.21 kg/m3
